Data on 17 compounds can be found in patent EP1683799A1, “3-Amino-6-aryl(or 6-heteroaryl)-4-R²-thieno[2,3-b]pyridin-2-carboxylic acid amides, pharmaceutical compositions comprising the said and their use as inhibitors of TNFalpha release” (IBFB Pharma GmbH, priority 2005, dated 2006).

In the experiment the test system is TNFα-Freisetzung. The experiment can be described thus: Inhibition of TNFα release after LPS stimulation of human whole blood (ELISA). The experiment is classed as cell-based. To be noted: human whole blood diluted 1:5 with RPMI 1640; LPS (Salmonella abortus equi) 1 µg/ml; 24 h at 37°C; TNFα in supernatant by ELISA; read-out: EC50 Hemmung der TNFα-Freisetzung. The text has this:
Methodenbeschreibung der Hemmung der TNFα Freisetzung nach LPS Stimulation von humanem Vollblut
Die Stimulierung isolierter Leukozyten für die Freisetzung von Zytokinen kann auf verschiedenen Wegen erfolgen. Lipopolysaccharide (LPS) stellen einen Stimulus für die Untersuchung der Freisetzung von TNFα dar. LPS ist Bestandteil bakterieller Zellwände und wird beim Abtöten der Bakterien (durch Antibiotika oder das natürliche Immunsystem) freigesetzt. LPS stimuliert insbesondere die Aktivität phagozytierender Leukozyten (Gewebsmakrophagen, Granulozyten, Monozyten) und verursacht die Infiltration von Leukozyten vom peripheren Blut in das betroffene Gewebe. Ein Zytokin von besonderer Bedeutung für diese Mechanismen ist TNFα, das in großen Mengen durch die betroffenen Zellen sezemiert wird. Hauptquelle dabei sind Monozyten und Makrophagen. TNFα initiiert und prolongiert den Entzündungsprozess im Zusammenspiel mit anderen Mediatoren.
Für die Untersuchung des Effektes auf die LPS-induzierte TNFα-Freisetzung wurde eine Methode verwendet, die von MARX et al. (Marx D, Tassabehji M, Heer S, Hüttenbrink KB, Szelenyi I (2002) Pulmonary Pharmacology & Therapeutics 15 7-15) beschrieben wurde. Die Methodenbeschreibung in verkürzter Darstellung: Humanes Blut verschiedener Spendern wird durch Zusatz von 10 mM Na-Citrat ungerinnbar gemacht und 1:5 mit RPMI 1640 Zellkulturmedium verdünnt. Die Verbindungen der allgemeinen Formel 1 sowie die Kontrollsubstanzen (z.B. Dexamethason) wurden den Blutproben in verschiedenen Konzentrationen hinzugefügt. 15 Minuten später wurden die Leukozyten durch Zusatz von Lipopolysacchariden (LPS) (aus Salmonella abortus equi) in einer Endkonzentration von 1 µg/ml stimuliert. Nach Inkubation der Testansätze für 24 Stunden bei 37°C. und unter 5% CO2 in wassergesättigter Luft, wurde das Blut zentrifugiert und die Konzentration an TNFα im zellfreien Überstand unter Verwendung eines käuflichen ELISA (BD Biosciences) nach Angaben des Herstellers exakt vermessen.
A general note: ELISA stands for enzyme-linked immunosorbent assay.

In general, EC50 refers to the midpoint of the concentration-response curve.

In the case of `NC(=O)c1sc2nc(-c3ccc(F)cc3)cc(C(F)(F)F)c2c1N` [Beispiel 22, 3-Amino-6-(4-fluor-phenyl)-4-trifluormethyl-thieno[2,3-b]pyridin-2-carbonsäureamid], the EC50 was below 1 nM.

Regarding `Cc1ccc(-c2cc(C(F)(F)F)c3c(N)c(C(N)=O)sc3n2)cc1` [Beispiel 7, 3-Amino-6-(4-methyl-phenyl)-4-trifluormethyl-thieno[2,3-b]pyridin-2-carbonsäureamid], the EC50 is below 1 nM.

As for `NC(=O)c1sc2nc(-c3ccc(Cl)cc3)cc(C(F)(F)F)c2c1N` [Beispiel 14, 3-Amino-6-(4-chlor-phenyl)-4-trifluormethyl-thieno[2,3-b]pyridin-2-carbonsäureamid], the EC50 was below 1 nM.

As for `NC(=O)c1sc2nc(-c3ccccc3)cc(C(F)(F)F)c2c1N` [Beispiel 6, 3-Amino-6-phenyl-4-trifluormethyl-thieno[2,3-b]pyridin-2-carbonsäureamid], the EC50 was below 1 nM.

In the case of `NC(=O)c1sc2nc(-c3cccs3)cc(C(F)(F)F)c2c1N` [Beispiel 2, 3-Amino-6-(2-thienyl)-4-trifluormethyl-thieno[2,3-b]pyridin-2-carbonsäureamid], the EC50 is below 1 nM.

Consider `Cc1ccc(-c2cc(C(F)(F)F)c3c(N)c(C(N)=O)sc3n2)cc1C` [Beispiel 16, 3-Amino-6-(3,4-dimethyl-phenyl)-4-trifluormethyl-thieno[2,3-b]pyridin-2-carbonsäureamid], for which the EC50 is below 1 nM.

Take `CCCc1ccc(-c2cc(C(F)(F)F)c3c(N)c(C(N)=O)sc3n2)cc1` [Beispiel 9, 3-Amino-6-(4-propyl-phenyl)-4-trifluormethyl-thieno[2,3-b]pyridin-2-carbonsäureamid]: the EC50 was below 1 nM.

In the case of `CCc1ccc(-c2cc(C(F)(F)F)c3c(N)c(C(N)=O)sc3n2)cc1` [Beispiel 8, 3-Amino-6-(4-ethyl-phenyl)-4-trifluormethyl-thieno[2,3-b]pyridin-2-carbonsäureamid], the EC50 was below 1 nM.

In the case of `NC(=O)c1sc2nc(-c3ccc(Br)cc3)cc(C(F)(F)F)c2c1N` [Beispiel 15, 3-Amino-6-(4-brom-phenyl)-4-trifluormethyl-thieno[2,3-b]pyridin-2-carbonsäureamid], the EC50 is below 1 nM.

Turning to `NC(=O)c1sc2nc(-c3ccc4c(c3)OCCO4)cc(C(F)(F)F)c2c1N` [3-Amino-6-(3,4-dioxoethylen-phenyl)-4-trifluormethyl-thieno[2,3-b]pyridin-2-carbonsäureamid], the EC50 is below 1 nM.

For `CSc1ccc(-c2cc(C(F)(F)F)c3c(N)c(C(N)=O)sc3n2)cc1` [3-Amino-6-(4-methylthio-phenyl)-4-trifluormethyl-thieno[2,3-b]pyridin-2-carbonsäureamid], the EC50 was below 1 nM.

As to `Cc1ccc(-c2cc(C(F)F)c3c(N)c(C(N)=O)sc3n2)cc1` [Beispiel 1, 3-Amino-4-difluormethyl-6-(4-methyl-phenyl)thieno[2,3-b]pyridin-2-carbonsäureamid], the EC50 is below 1 nM.

On to `NC(=O)c1sc2nc(-c3ccc4c(c3)OCO4)cc(C(F)(F)F)c2c1N` [Beispiel 18, 3-Amino-6-(3,4-dioxomethylen-phenyl)-4-trifluormethyl-thieno[2,3-b]pyridin-2-carbonsäureamid], for which the EC50 is below 1 nM.

With `CC(C)c1ccc(-c2cc(C(F)(F)F)c3c(N)c(C(N)=O)sc3n2)cc1` [Beispiel 10, 3-Amino-6-(4-isopropyl-phenyl)-4-trifluormethyl-thieno[2,3-b]pyridin-2-carbonsäureamid], the EC50 was below 1 nM.

With `NC(=O)c1sc2nc(-c3ccc4ccccc4c3)cc(C(F)(F)F)c2c1N` [Beispiel 5, 3-Amino-6-(2-naphthyl)-4-trifluormethyl-thieno[2,3-b]pyridin-2-carbonsäureamid], the concentration for a half-maximal effect (EC50) was below 1 nM.

As for `CCOc1ccc(-c2cc(C(F)(F)F)c3c(N)c(C(N)=O)sc3n2)cc1` [Beispiel 13, 3-Amino-6-(4-ethoxy-phenyl)-4-trifluormethyl-thieno[2,3-b]pyridin-2-carbonsäureamid], the EC50 is below 1 nM.

On to `COc1ccc(-c2cc(C(F)(F)F)c3c(N)c(C(N)=O)sc3n2)cc1` [Beispiel 12, 3-Amino-6-(4-methoxy-phenyl)-4-trifluormethyl-thieno[2,3-b]pyridin-2-carbonsäureamid], for which the EC50 was below 1 nM.
